This note sets out measurements from patent US12678425B2, “Methods for treating against viruses” (Howard University, priority 2019, dated 2026).

The subject of one data set is HSV-1 ICP0 protein. The data set can be described thus: Immunofluorescence and confocal microscopy of ICP0 in Hep-2 cells. The class given is cell-based. Particulars: 10 μM, HSV-1 MOI 1.0, 30 h. The protocol:
The HEp-2 cells were infected with HSV-1 at an MOI of 1.0 for 30 h along with the indicated compounds and control. The cells were fixed with 4% paraformaldehyde and stained with anti-ICPO-FITC in green and DAPI (blue for DNA label in the nucleus). The slides were observed under a Nikon confocal microscope (60× magnification lens) and pictures were taken to show infected cells (green) and total cells (DAPI). All scale bars correspond to 20 μm. The imaging experiments were performed three independent times, and the results as shown are representative of one of three experiments.
Hep-2 cells were grown to about 80% confluency in 12 well plate and the cells were co-infected with HSV-1 at an MOI of 1.0 for 30 h along with the indicated inhibitor compounds and control. The cells were fixed at room temperature with 4% paraformaldehyde-PBS for 15 minutes and then permeabilized at room temperature by 0.5% Triton X-100-PBS (pH 7.4) for 10 min. The cells were then washed 3× with Ice cold PBS. The cells were incubated with 1% BSA, 22.52 mg/mL glycine in PBST (PBS+0.1% Tween 20) for 30 min to block unspecific binding of the antibodies. The cells were incubated in the 1:500 diluted anti-ICP0 antibody in 1% BSA in PBST in a humidified chamber overnight at 4° C. […]

The next data set has as its system HEp-2 cells. Description: Trypan blue exclusion cell viability. The format is cell-based. As to conditions: 24-hour treatment. The protocol:
In order to assess whether the compounds are producing any toxicity that can led to the cell deaths, we evaluated the cell viability by the trypan blue exclusion method. As long-term inhibition of RACK1 expression has been reported to cell cycle arrest, we limited our experimental treatments to 24 h and evaluated the cell viability of almost full confluent cells after 24 h of compound treatment.
In table 2, the viability of cells was measured with Trypan blue exclusion assay in a Cellometer (Nexcelom, Lawrence, MA). The percentage survival of the compound treated cells was evaluated along with the DMSO treated cells. The values represent the mean f SE of three separate well based replicates.

A further data set deals with Human Annexin A2. The data set can be described thus: LC-MS of Annexin A2 abundance after compound treatment. Details: Annexin A2 fragment abundance: reference not given here. As to conditions: for Abundance ratio 1: SD29-14 over DMSO (10 uM); for Abundance ratio 2: SD29-14 over DMSO (100 uM). The class given is cell-based. The protocol: To further confirm this mechanism of action, LC-MS (Liquid Chromatography-Mass Spectrometry) was conducted to determine the effect of RACK1 inhibition on ANXA2 expression.

Data set [1] has as its system Hep-2 cells infected with HSV-1. Description: Fluorescence cell sort in Cellometer, HSV-1 infected Hep-2 cells. The format is cell-based, human. Particulars: 24-h incubation, HSV-1 MOI 1.0. The protocol: FIG. 13 depicts the quantification of fluorescent cells by Image based cell sorting in a Cellometer (Nexcelom Vision), based on the experiments depicted in FIG. 12. […] The cells were prepared by immunostaining with ICP0 antibody after 24-h incubation with the indicated compounds. The total cell counts were 1.01×10^6/ml, 4.69×10^6/ml, and 5.36×10^6/ml for DMSO, SD29-14 (10 μM), and SD29-14 (100 μM) respectively. The numbers show the mean f SE of three replicates.
Fluorescence Cell Sort: Hep-2 cells were grown to about 80% confluency in T25 Cell culture flask and were co-infected with HSV-1 at a MOI of 1.0 for 24 h along with the indicated inhibitor compounds and control. After trypsinization, the cells were fixed in 4% paraformaldehyde-PBS. The cells were treated in the same method as described in the immunofluorescence and confocal microscopy method section. The labeled cells were counted in a Nexcelom Vision Cellometer equipped with Brightfield & 2 Fluorescence Channels Filter Set 101: Excitation/Emission Peak: 475 nm/535 nm and Filter Set 202: Excitation/Emission Peak: 525 nm/595 nm. […] Bright-field and fluorescent images were then captured and analyzed at four different locations by the Cellometer image analysis software to directly determine the cell concentration of fluorescently labelled cells. […]

Data set [2] concerns RACK1A Y248 phosphorylation. The data set can be described thus: Immunoblot of ABA-induced RACK1A Y248 phosphorylation in seedlings. The format is cell-based, Arabidopsis. As to conditions: 10 μM ABA, 12 hours. (In general: In western blotting, separated proteins are transferred to a membrane and probed.)
In a further data set the test system is HSV-1. The data set can be described thus: Protection from HSV-1 cytopathic effect in HEp-2 cells (microscopy). The class given is cell-based. Particulars: different concentrations, 24 h. The text has this: FIG. 15 depicts the results of in vitro testing to confirm the protective effect of a representative compound (SD-29-14) from the cytopathic effect caused by HSV-1. […] After washing away the virus with PBS, images were taken under a compound microscope.

A further data set has as its system HSV-1 strain 17. Description: Plaque formation unit (pfu) assay in HEp-2 cells.
A further data set relates to RACK1 protein expression. Description: Immunoblot of RACK1 expression under salt stress.
The subject of data set [3] is HSV-1 proteins (ICP0, ICP8, gD). Description: Western blot of HSV-1 proteins in pre-treated HEp-2 cells. The format is cell-based. Particulars: 100 μM, 24 hours pre-treatment, 24 h post infection. The protocol: (§1) Panel A of FIG. 8 depicts time and concentration dependent virus protein expression to deduce an optimum drug treatment regimen. […] Tubulin expression was used as the loading control for the blots.
(§2) Proteins were separated by SDS-PAGE (25 μg loaded in each lane), transferred to nitrocellulose membranes (Amersham Inc., Piscataway, NJ, USA), and blocked with 5% nonfat milk for 60 min at room temperature. Membranes were incubated overnight at 4° C. with primary antibody, followed by incubation with a horseradish peroxidase-coupled secondary antibody and detection with enhanced chemiluminescence (Pierce, Rockford, IL, USA), according to standard methods. Membranes were stripped with stripping buffer (100 mM 2-mercaptoethanol, 2% SDS, 62.5 mM Tris-HCl, pH 6.8), washed with PBS-0.1% Tween-20, and used to detect additional proteins. For Arabidopsis lysates one-week old seedlings were treated with 10 uM of ABA in the presence/absence of the inhibitor compounds for 12 hours in a growth chamber (overnight) at 22° C. mostly in the dark. Lysates were isolated in lysis buffer (Cell Signaling, Danvers, MA) supplemented with plant protease inhibitor (Sigma-Aldrich), phosphatase inhibitor cocktail A and B (Santa Cruz Biotechnology, Dallas, TX), and N-Ethylamaleimide (Sigma-Aldrich, St. Louis, MO). […]

In another data set the target is T1, RACK1 (Homo sapiens, UniProt P63244).
T1 construct: endogenous in cells; host or cells: HEp-2 cells (ATCC), infected with HSV-1
Description: Western blot of RACK1 in pre-treated, HSV-1 infected HEp-2 cells. The format is cell-based. Particulars: 100 μM, 24 hours pre-treatment, 24 h post infection. The method, then: as §1, §2

The structures appear in SMILES notation. Some results are limits rather than exact numbers.

Description for HSV-1 strain 17: The viral plaque assay was performed as previously described (Tang et al. “Determination of minimum herpes simplex virus type 1 components necessary to localize transcriptionally active DNA to ND10,” J. Virol. 2003; 77:5821-28), with slight modifications. The HSV-1 strain 17 was diluted serially in a volume of 1 mL. Then 300 ul of the virus was added onto confluent HEp-2 cell monolayers in 12-well plates; each dilution had 3 wells. After adsorption for 2 h, the medium was removed and the cells were washed twice with serum-free DMEM and overlaid with phenol-free DMEM containing 5% FCS, 0.5% low-melting point agarose (GIBCO), and 1% penicillin-streptomycin. The cells were incubated at 370 C for 48 hours. Neutral red was added on the agarose to stain the live cells. The plaques were counted and reported as pfu per mL. Mean pfu was determined after averaging the number of pfu from different dilutions.
Description for RACK1 protein expression: The abundant leaf protein Rubisco large subunit (RbcL) was used as a loading control for the blot.
As the antibody cross-reacts with all three RACK1 isoforms in Arabidopsis, we used the double knockout (rack1ab) as a negative control on the blot (triple mutant is lethal at the early seedling stage). The large subunit of the abundant leaf protein rubisco (RbcL) was used as loading control for this blot.

As for `Nn1c(S)nnc1-c1cc(Cl)cc(Cl)c1` [SD-29-14], the “expression of ICP0 protein (immunofluorescence)” value in the data set on HSV-1 ICP0 protein is “effectively eliminated any expression of ICP0 protein”. Also, the “HEp-2 Cell viability, Mean (percentage survival)” value in the data set with HEp-2 cells (10 μM) was 97.5%; in the data set on HEp-2 cells (100 μM), 93.7%. In the data set with Human Annexin A2 (LC-MS, SD29-14 treatment), the “abundance of human ANXA2” value is “increased abundance”. In addition, the “Annexin A2 fragment abundance” value in the data set with Human Annexin A2 (fragment DALNIETAIK, 10 uM) was 317727.9; in the data set with Human Annexin A2 (fragment DALNIETAIK, 100 uM) it was 130507.6; in the data set on Human Annexin A2 (fragment GVDEVTIVNILTNR, 10 uM), 133381; in the data set with Human Annexin A2 (fragment GVDEVTIVNILTNR, 100 uM), 9540; in the data set with Human Annexin A2 (fragment TNQELQEINR, 10 uM) it was 462054; with Human Annexin A2 (fragment TNQELQEINR, 100 uM), 190293. The figures for the “Abundance ratio 1” value with Human Annexin A2 (fragment DALNIETAIK), in the data set on Human Annexin A2 (fragment GVDEVTIVNILTNR) and in the data set with Human Annexin A2 (fragment TNQELQEINR) were 7.765, over 100 and 10.502, respectively. Further, the “Abundance ratio 2” value with Human Annexin A2 (fragment DALNIETAIK) is 3.19; in the data set with Human Annexin A2 (fragment GVDEVTIVNILTNR), over 100; with Human Annexin A2 (fragment TNQELQEINR), 4.325. Also, the total cell counts in data set [1] (10 μM) was found to be 4.69e+06 mL⁻¹; in [1] (100 μM), 5.36e+06 mL⁻¹. In addition, the “ABA-induced RACK1A Y248 phosphorylation” value in data set [2] is reported as “prevented the ABA-induced Y248 phosphorylation”. Further, the “cytopathic effect caused by HSV-1” value with HSV-1 is reported as “do not show the cytopathic effect”.

Regarding `Nn1c(S)nnc1-c1ccc(F)cc1` [SD-29], the “HEp-2 Cell viability, Mean (percentage survival)” value in the data set with HEp-2 cells (10 μM) is on record as 94.0%; in the data set on HEp-2 cells (100 μM), 92.7%. Moreover, the “Plaque formation unit (pfu)” value with HSV-1 strain 17 (0 hpl) and in the data set on HSV-1 strain 17 (6 hpl) was 0 ± 0 PFU/mL each time. The “RACK1 protein expression under salt stress” value with RACK1 protein expression is recorded as “inhibited RACK1 protein expression”. For the same compound, the “viral protein levels (ICP0, ICP8, gD)” value in data set [3] was “lower than that of DMSO- or SD-29-12-treated HEp-2 cells”. In addition, the “production of RACK1” value at RACK1 is on record as “reduced the production of RACK1”. The “ABA-induced RACK1A Y248 phosphorylation” value in data set [2] is “prevented the ABA-induced Y248 phosphorylation”.
